Source: patent US20200055817A1 (AbbVie Deutschland GmbH & Co. KG, priority 2016, published 2020)

How the values were obtained:
Type in all cases: cell-based
[1] = biological target: T1, human EDG8 (S1PR5) receptor (Homo sapiens, UniProt Q9H228); test: Aequorin assay, agonist potency, CHO-A21-EDG8#12 cells; details: agonist mode, aequorin luminescence; read-out: S1P5 EC50 range #
T1 construct: carries the transgenes human EDG8 (S1PR5) receptor (Acession number NP_110387.1); expressed in transfected cells; host or cells: CHO-A21-EDG8#12 (CHO clone co-expressing mitochondrial aequorin and chimaeric Gaqi5)
T1 sequence (Q9H228 whole entry): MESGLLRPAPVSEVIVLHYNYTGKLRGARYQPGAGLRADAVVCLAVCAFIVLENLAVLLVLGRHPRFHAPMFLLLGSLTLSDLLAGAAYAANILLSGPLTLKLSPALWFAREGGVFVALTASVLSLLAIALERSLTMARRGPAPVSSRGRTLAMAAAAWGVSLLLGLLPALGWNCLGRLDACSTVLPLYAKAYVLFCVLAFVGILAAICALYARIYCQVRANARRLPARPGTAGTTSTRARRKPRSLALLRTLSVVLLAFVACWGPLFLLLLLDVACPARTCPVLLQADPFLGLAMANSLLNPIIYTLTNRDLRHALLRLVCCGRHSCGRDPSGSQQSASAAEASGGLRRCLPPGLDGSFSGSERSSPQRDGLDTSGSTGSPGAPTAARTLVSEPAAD
How it was run: (§1)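 CHO cells coexpressing receptor, mitochondrial aequorin and Gαqi5 (S1P3 pool: GNA16) were loaded overnight at RT with 5 μM coelenterazine h in 0.1% fatty-acid-free BSA buffer. Cells were injected onto compound, luminescence recorded 90 s and integrated, normalised to digitonin or 20 μM ATP; sigmoidal fit.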

[2] = biological target: T2, human EDG1 (S1PR1) receptor (Homo sapiens, UniProt P21453); test: Aequorin assay, agonist potency, CHO-A21-Edg1#17 cells; details: agonist mode, aequorin luminescence; read-out: S1P1 EC50
T2 construct: expressed in transfected cells; host or cells: CHO-A21-Edg1#17 (CHO clone co-expressing mitochondrial aequorin and chimaeric Gaqi5)
T2 sequence (P21453 whole entry): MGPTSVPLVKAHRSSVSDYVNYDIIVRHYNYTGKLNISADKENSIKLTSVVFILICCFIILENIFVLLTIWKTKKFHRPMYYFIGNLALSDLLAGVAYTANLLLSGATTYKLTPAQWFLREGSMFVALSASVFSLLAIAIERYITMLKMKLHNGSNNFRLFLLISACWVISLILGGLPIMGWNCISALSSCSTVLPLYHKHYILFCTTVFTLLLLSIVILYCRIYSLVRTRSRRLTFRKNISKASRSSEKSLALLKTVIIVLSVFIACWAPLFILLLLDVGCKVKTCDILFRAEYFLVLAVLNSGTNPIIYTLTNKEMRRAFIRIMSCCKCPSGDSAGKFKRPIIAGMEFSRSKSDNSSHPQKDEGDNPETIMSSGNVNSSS
How it was run: as §1

[3] = biological target: T3, S1P4 (Homo sapiens, UniProt O95977); test: Aequorin assay, agonist potency, S1P4; details: agonist mode, aequorin luminescence
T3 sequence (O95977 1-384): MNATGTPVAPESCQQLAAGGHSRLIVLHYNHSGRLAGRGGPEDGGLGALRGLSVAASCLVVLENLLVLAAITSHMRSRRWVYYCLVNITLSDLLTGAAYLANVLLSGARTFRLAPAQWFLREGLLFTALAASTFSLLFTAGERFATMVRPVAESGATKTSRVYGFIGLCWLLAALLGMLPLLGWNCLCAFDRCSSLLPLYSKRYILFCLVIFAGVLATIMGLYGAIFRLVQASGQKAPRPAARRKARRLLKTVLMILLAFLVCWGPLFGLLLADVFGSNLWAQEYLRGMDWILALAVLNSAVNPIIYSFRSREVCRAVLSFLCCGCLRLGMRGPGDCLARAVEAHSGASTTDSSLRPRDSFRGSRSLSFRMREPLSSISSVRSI
How it was run: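 Cells loaded overnight at RT with 5 μM coelenterazine h in DMEM/HAM's F12 with HEPES plus 0.1% fatty acid-free BSA, then injected onto compounds; agonist-induced calcium luminescence recorded for 90 s and integrated. Signal normalised to digitonin (100 μM) or ATP (20 μM) wells, S1P as reference agonist; sigmoidal nonlinear regression.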

SMILES	EC50 [1]	EC50 [2]	EC50 [3]
O=C(O)CN1CC2(Cc3ccc(OCc4cccc5c4CCC5)cc3C2)C1 [Example 74, 2-(5′-((2,3-dihydro-1H-inden-4-yl)methoxy)-1′,3′-dihydrospiro[azetidine-3,2′-inden]-1-yl)acetic acid]	≤ 10 nM	> 1000 nM	< 1000 nM
CC(C)Oc1ccc(C#Cc2ccc3c(c2)CC2(C3)CN(CC(=O)O)C2)cn1 [Example 75, 2-(5′-((6-isopropoxypyridin-3-yl)ethynyl)-1′,3′-dihydrospiro[azetidine-3,2′-inden]-1-yl)acetic acid]	≤ 10 nM	< 1000 nM	> 1000 nM
CC1CCC(C#Cc2ccc3c(c2)CC2(C3)CN(CC(=O)O)C2)CC1 (stereo not drawn) [Example 76, 2-(5′-((4-methylcyclohexyl)ethynyl)-1′,3′-dihydrospiro[azetidine-3,2′-inden]-1-yl)acetic acid]	≤ 10 nM	> 1000 nM	< 1000 nM
CCOc1ccc(C#Cc2ccc3c(c2)CC2(C3)CN(CC(=O)O)C2)cc1 [Example 77, 2-(5′-((4-ethoxyphenyl)ethynyl)-1′,3′-dihydrospiro[azetidine-3,2′-inden]-1-yl)acetic acid]	≤ 10 nM	< 1000 nM	< 1000 nM
O=C(O)CN1CC2(Cc3ccc(C#Cc4ccc(OC5CCCC5)nc4)cc3C2)C1 [Example 78, 2-(5′-((6-(cyclopentyloxy)pyridin-3-yl)ethynyl)-1′,3′-dihydrospiro[azetidine-3,2′-inden]-1-yl)acetic acid]	≤ 10 nM	< 1000 nM	< 1000 nM
CC(Oc1ccc(C#Cc2ccc3c(c2)CC2(C3)CN(CC(=O)O)C2)cn1)C(F)(F)F (stereo not drawn) [Example 79, 2-(5′-((6-((1,1,1-trifluoropropan-2-yl)oxy)pyridin-3-yl)ethynyl)-1′,3′-dihydrospiro[azetidine-3,2′-inden]-1-yl)acetic acid]	≤ 10 nM	< 1000 nM	< 1000 nM
O=C(O)CN1CC2(Cc3ccc(C#Cc4ccccc4Cl)cc3C2)C1 [Example 80, 2-(5′-((2-chlorophenyl)ethynyl)-1′,3′-dihydrospiro[azetidine-3,2′-inden]-1-yl)acetic acid]	≤ 10 nM	> 1000 nM	< 1000 nM
O=C(O)CN1CC2(Cc3ccc(C#Cc4ccccc4)cc3C2)C1 [Example 82, 2-(5′-(phenylethynyl)-1′,3′-dihydrospiro[azetidine-3,2′-inden]-1-yl)acetic acid]	10 to 100 nM	> 1000 nM	< 1000 nM
CCOc1cc(F)c(COc2ccc3c(c2)CC2(C3)CN(C3CC(C(=O)O)C3)C2)c(F)c1 (stereo not drawn) [Example 85, 3-(5′-((4-ethoxy-2,6-difluorobenzyl)oxy)-1′,3′-dihydrospiro[azetidine-3,2′-inden]-1-yl)cyclobutanecarboxylic acid]	1000 to 10000 nM	> 1000 nM	< 1000 nM
O=C(O)C1CC(N2CC3(Cc4ccc(C#Cc5ccc(OC6CCCC6)nc5)cc4C3)C2)C1 (stereo not drawn) [Example 95, 3-(5′-((6-(cyclopentyloxy)pyridin-3-yl)ethynyl)-1′,3′-dihydrospiro[azetidine-3,2′-inden]-1-yl)cyclobutanecarboxylic acid]	≤ 10 nM	< 1000 nM	< 1000 nM
CC(C)Oc1ccc(C#Cc2ccc3c(c2)CC2(C3)CN(C3CC(C(=O)O)C3)C2)cn1 (stereo not drawn) [Example 96, 3-(5′-((6-isopropoxypyridin-3-yl)ethynyl)-1′,3′-dihydrospiro[azetidine-3,2′-inden]-1-yl)cyclobutanecarboxylic acid]	10 to 100 nM	< 1000 nM	> 1000 nM
CC(C)Oc1ccc(C#Cc2ccc3c(c2)CC2(C3)CN(C3CC(C(=O)O)C3)C2)cc1 (stereo not drawn) [Example 97, 3-(5′-((4-isopropoxyphenyl)ethynyl)-1′,3′-dihydrospiro[azetidine-3,2′-inden]-1-yl)cyclobutanecarboxylic acid]	≤ 10 nM	< 1000 nM	> 1000 nM
CCOc1ccc(C#Cc2ccc3c(c2)CC2(C3)CN(C3CC(C(=O)O)C3)C2)cc1 (stereo not drawn) [Example 98, 3-(5′-((4-ethoxyphenyl)ethynyl)-1′,3′-dihydrospiro[azetidine-3,2′-inden]-1-yl)cyclobutanecarboxylic acid]	10 to 100 nM	< 1000 nM	> 1000 nM
O=C(O)C1CC(N2CC3(Cc4ccc(C#Cc5ccc(OCC6CC6)nc5)cc4C3)C2)C1 (stereo not drawn) [Example 99, 3-(5′-((6-(cyclopropylmethoxy)pyridin-3-yl)ethynyl)-1′,3′-dihydrospiro[azetidine-3,2′-inden]-1-yl)cyclobutanecarboxylic acid]	100 to 1000 nM	< 1000 nM	> 1000 nM

Second part, the compound after the results:

EC50 [1]	EC50 [2]	EC50 [3]	SMILES
10 to 100 nM	> 1000 nM	< 1000 nM	O=C(O)C1CC(N2CC3(Cc4ccc(OCc5cccc6c5CCC6)cc4C3)C2)C1 (stereo not drawn) [Example 83, 3-(5′-((2,3-dihydro-1H-inden-4-yl)methoxy)-1′,3′-dihydrospiro[azetidine-3,2′-inden]-1-yl)cyclobutanecarboxylic acid]
1000 to 10000 nM	> 1000 nM	> 1000 nM	O=C(O)C1CC(N2CC3(Cc4ccc(OCc5ccc(OCC6CC6)cc5)cc4C3)C2)C1 (stereo not drawn) [Example 84, 3-(5′-((4-(cyclopropylmethoxy)benzyl)oxy)-1′,3′-dihydrospiro[azetidine-3,2′-inden]-1-yl)cyclobutanecarboxylic acid]
1000 to 10000 nM	> 1000 nM	< 1000 nM	CCOc1ccc(COc2ccc3c(c2)CC2(C3)CN(C3CC(C(=O)O)C3)C2)c(F)c1F (stereo not drawn) [Example 86, 3-(5′-((4-ethoxy-2,3-difluorobenzyl)oxy)-1′,3′-dihydrospiro[azetidine-3,2′-inden]-1-yl)cyclobutanecarboxylic acid]
≤ 10 nM	> 1000 nM	< 1000 nM	O=C(O)C1CC(N2CC3(Cc4ccc(OCc5c(F)cccc5C5CC5)cc4C3)C2)C1 (stereo not drawn) [Example 87, 3-(5′-((2-cyclopropyl-6-fluorobenzyl)oxy)-1′,3′-dihydrospiro[azetidine-3,2′-inden]-1-yl)cyclobutanecarboxylic acid]
1000 to 10000 nM	> 1000 nM	< 1000 nM	COc1ccc(COc2ccc3c(c2)CC2(C3)CN(C3CC(C(=O)O)C3)C2)c(C)n1 (stereo not drawn) [Example 88, 3-(5′-((6-methoxy-2-methylpyridin-3-yl)methoxy)-1′,3′-dihydrospiro[azetidine-3,2′-inden]-1-yl)cyclobutanecarboxylic acid]
10 to 100 nM	> 1000 nM	< 1000 nM	O=C(O)[C@H]1C[C@H](N2CC3(Cc4ccc(OCc5cc(Cl)ccc5Cl)cc4C3)C2)C1 [Example 89, (1r,3r)-3-(5′-((2,5-dichlorobenzyl)oxy)-1′,3′-dihydrospiro[azetidine-3,2′-inden]-1-yl)cyclobutanecarboxylic acid]
100 to 1000 nM	> 1000 nM	< 1000 nM	O=C(O)[C@H]1C[C@@H](N2CC3(Cc4ccc(OCc5cc(Cl)ccc5Cl)cc4C3)C2)C1 [Example 90, (1s,3s)-3-(5′-((2,5-dichlorobenzyl)oxy)-1′,3′-dihydrospiro[azetidine-3,2′-inden]-1-yl)cyclobutanecarboxylic acid]
≤ 10 nM	< 1000 nM	< 1000 nM	O=C(O)C1CC(N2CC3(Cc4ccc(OCc5c(Cl)cccc5C5CC5)cc4C3)C2)C1 (stereo not drawn) [Example 91, 3-(5′-((2-chloro-6-cyclopropylbenzyl)oxy)-1′,3′-dihydrospiro[azetidine-3,2′-inden]-1-yl)cyclobutanecarboxylic acid]
≤ 10 nM	> 1000 nM	< 1000 nM	O=C(O)C1CC(N2CC3(Cc4ccc(OCc5c(Cl)cccc5Cl)cc4C3)C2)C1 (stereo not drawn) [Example 92, 3-(5′-((2,6-dichlorobenzyl)oxy)-1′,3′-dihydrospiro[azetidine-3,2′-inden]-1-yl)cyclobutanecarboxylic acid]
10 to 100 nM	> 1000 nM	< 1000 nM	O=C(O)C1CC(N2CC3(Cc4ccc(OCc5cc(Cl)ccc5Cl)cc4C3)C2)C1 (stereo not drawn) [Example 93, 3-(5′-((2,5-dichlorobenzyl)oxy)-1′,3′-dihydrospiro[azetidine-3,2′-inden]-1-yl)cyclobutanecarboxylic acid]
≤ 10 nM	< 1000 nM	< 1000 nM	CCc1cccc(Cl)c1COc1ccc2c(c1)CC1(C2)CN(C2CC(C(=O)O)C2)C1 (stereo not drawn) [Example 94, 3-(5′-((2-chloro-6-ethylbenzyl)oxy)-1′,3′-dihydrospiro[azetidine-3,2′-inden]-1-yl)cyclobutanecarboxylic acid]
